According to US20260271929A1, “FUNGICIDAL COMBINATIONS, MIXTURES AND COMPOSITIONS AND USES THEREOF” (ADAMA MAKHTESHIM LTD., priority 2023, published 2026):
Like-named read-outs stand apart in the source and are kept apart here. Each block holds one molecule with its values, some of them ahead of it.

Tested on: Rhizoctonia solani
Assay: Microtiter plate (MTP) fungal growth inhibition assay, OD at 590 nm after 5 days; interaction by Wadley approach
Format: cell-based
Details: for EC50: Rhizoctonia solani
Procedure: In the […] method, synergistic activity is determined from dose response curves. With this method, the efficacy of the active ingredient (“a.i.”) is determined by comparing the degree of fungal attack on treated plants with that on untreated, similarly inoculated and incubated check plants. Each a.i. is generally tested at multiple. (e.g., 6) 25 concentrations, and dose response curves are generated. The dose response curves are used to establish the EC50 (i.e., the effective concentration of a.i. providing 50% disease control) of the individual compounds as well as of the combinations (EC50Observed) The experimentally found values of the mixture at a given weight ratio are compared with the values that would have been found were only a complementary efficacy of the components was present as follows: 5 [formula] • A and B=the single products tested • a and b=the ratio of each product in the mixture • ECA and ECB=observed effective concentration of the single products A and B at different control levels (50 or 90%) 10 The ratio EC50 (A+B)Theo/EC50(A+B)observed expresses the factor of interaction level (R) which may be interpreted in accordance with the following Table: [table] The compound of Formula I, […] and Pyridachlometyl were tested straight or in mixture on the Rhizoctonia solani pathogen. the active ingredients straight or in mixture were diluted in a suitable solvent to a set of concentrations. Two fungicide ratios were tested for each combination between the compound of Formula I and Chloroinconazide or Pyridachlometyl. One hundred microliters of sterile distilled water with or without fungicide were added to 100 μl of pathogen suspension into each well in a microtiter plate (MTP). Each bioassay was carried out with the following 8 treatment groups corresponding to 8 concentrations of the fungicide mixture. In the MTP assay, 3 replicates (wells) were carried out for each concentration of fungicide mixture. The MTPs were incubated in the dark at 19° C. for 5 days under saturated humidity in order to avoid evaporation. Then, the fungal growth in each well was estimated by measuring the Optical Density (OD) at 590 nm with a BMG plate reader (FLUOstar Omega, BMG Labtech). The OD values at 5 days were automatically corrected by comparison with those measured at day zero (inoculation day). The generated data were transferred to the MARS Data Analysis software (BMG Labtech) which allows to calculate percentage of growth inhibition induced by each concentration of fungicide tested. Finally, the EC50 of each product and mixture was determined. • (i) No bacterial nor fungal contamination at any stage of the assay must be observed. • (ii) A normal and constant mycelium growth must be observed in the control wells (without fungicide). • (iii) At the end of the evaluation the final minimum OD must reach at least a value of 0.25 Absorbance's Unit (AU).

[1] = MTP, 5 days at 19° C., OD 590 nm
[2] = Table 9, active ingredient straight

EC50 [1]: 0.111 mg/L
EC50 observed [2]: 0.1115 mg/L
SMILES: Cc1nnc(Cl)c(-c2c(F)cccc2F)c1-c1ccccc1 [Pyridachlometyl]
percentage of growth inhibition (Dose 0.00781): −1.1%
percentage of growth inhibition (Dose 0.01563): 2.6%
percentage of growth inhibition (Dose 0.03125): 3.7%
percentage of growth inhibition (Dose 0.06250): 12.7%
percentage of growth inhibition (Dose 0.12500): 68.7%
percentage of growth inhibition (Dose 0.2500): 76.0%
percentage of growth inhibition (Dose 0.500): 77.2%

EC50 [1]: 15.399 mg/L
EC50 observed [2]: 15.3990 mg/L
SMILES: CC1N[C@H](C(=O)N/N=C/c2ccc(Cl)cc2)Cc2c1[nH]c1ccccc21 (stereo partly drawn) [Chloroinconazide]
percentage of growth inhibition (Dose 0.110): 14.4%
percentage of growth inhibition (Dose 0.329): 2.0%
percentage of growth inhibition (Dose 0.988): 24.1%
percentage of growth inhibition (Dose 2.96): 9.1%
percentage of growth inhibition (Dose 8.89): 19.5%
percentage of growth inhibition (Dose 26.7): 99.3%
percentage of growth inhibition (Dose 80): 100.1%

EC50 (120 h, MTP, 5 days at 19° C., OD 590 nm, read-out: EC50): > 320 mg/L
EC50 (Table 9, active ingredient straight, read-out: EC50 observed): ≥ 320 mg/L
SMILES: Cc1ccc(S(=O)(=O)n2cc(F)c(=N)n(C)c2=O)cc1 [Compound (I), 5-fluoro-4-imino-3-methyl-1-tosyl-3,4-dihydropyrimidin-2(1H)-one]
percentage of growth inhibition (Dose 0.020): 15.8%
percentage of growth inhibition (Dose 0.102): 23.9%
percentage of growth inhibition (Dose 0.512): 22.5%
percentage of growth inhibition (Dose 2.56): 0.7%
percentage of growth inhibition (Dose 12.8): 13.5%
percentage of growth inhibition (Dose 64): 27.7%
percentage of growth inhibition (Dose 320): 40.1%
